The results in this text go back to patent publication EP1130016A1, “THIOCARBAMIC ACID DERIVATIVES” (HOKURIKU SEIYAKU CO., LTD., priority 1998, dated 2000).

Converted amounts (≈) assume the structure as drawn. Read-outs that look alike come from different tables or passages of the source.

Assay [1] relates to B.subtilis ATCC 6633 HPR022. Put plainly: Antibacterial activity (MIC), type strains. The assay is classed as cell-based. Particulars: Bacillus subtilis, ATCC6633; type strain B.subtilis ATCC 6633 HPR022; 10^6/ml of colony forming bacteria. As to the method: (§1) Antibacterial activities (minimum inhibitory concentration: MIC) were determined according to the standard method of the Japan Society of Chemotherapy [Chemotherapy, Vol. 29, p.76 (1981)] by using type strains and strains isolated from patients with infectious disease (including clinical isolates and atypical acid-fast bacteria), and applying 10^6/ml of colony forming bacteria. Linezolid was used as the reference compound [a compound described in Journal of Medicinal Chemistry, Vol. 39, p.673 (1996), hereinafter referred to as "reference compound"].

In another assay the test system is S.aureus MS353 HPC017. Kind of assay: Antibacterial activity (MIC), type strains. To be noted: Staphylococcus aureus, MS353HPC017. Type of assay: cell-based. As to the method: as §1
For a further assay, the system named is S.aureus Smith HPC023. Kind of assay: Antibacterial activity (MIC), type strains. Type of assay: cell-based. Particulars: Staphylococcus aureus. As to the method: as §1
A further assay concerns MRSA HPC 1336. Kind of assay: Antibacterial activity (MIC), clinical isolates. The assay is classed as cell-based, Methicillin-resistant Staphylococcus aureus. Particulars: Staphylococcus aureus. On the procedure:
as §1

The test system of another assay is MRSA HPC 432. Kind of assay: Antibacterial activity (MIC), clinical isolates. Type of assay: cell-based, Methicillin-resistant Staphylococcus aureus. To be noted: Staphylococcus aureus. As to the method:
as §1

For a further assay, the system named is E.faecalis HPC 1321. Kind of assay: Antibacterial activity (MIC), clinical isolates. Type of assay: cell-based. To be noted: Enterococcus faecalis, HPC1321. As to the method:
as §1

The test system of another assay is E.faecium HPC 1322. Put plainly: Antibacterial activity (MIC), clinical isolates. Type of assay: cell-based. Particulars: Enterococcus faecium, HPC1322. As to the method: as §1
The test system of a further assay is S.epidermidis HPC 1728. Put plainly: Antibacterial activity (MIC), clinical isolates. To be noted: Staphylococcus epidermidis, HPC1728. Type of assay: cell-based. As to the method: as §1
For another assay, the system named is M.avium 20092. Put plainly: Antibacterial activity (MIC), atypical acid-fast bacteria. Type of assay: cell-based. Particulars: Mycobacterium avium, 10^6/ml of colony forming bacteria. On the procedure: as §1
A further assay has as its system M.avium 20096. Described as above. The assay is classed as cell-based. To be noted: Mycobacterium avium, 10^6/ml of colony forming bacteria. As to the method: as §1
The subject of another assay is M.intracellulare 20067. The description is as above. Type of assay: cell-based. Particulars: Mycobacterium intracellulare, 10^6/ml of colony forming bacteria. As to the method:
as §1

A further assay relates to M.intracellulare 20073. The assay is described as above. Particulars: Mycobacterium intracellulare, 10^6/ml of colony forming bacteria. The assay is classed as cell-based. As to the method: as §1
[2] abbreviates: type strain S.aureus MS353 HPC017, 10^6/ml of colony forming bacteria, read-out: MIC.
Setting [3] is: type strain S.aureus Smith HPC023, 10^6/ml of colony forming bacteria, read-out: MIC.
Setting [4] is: clinical isolate MRSA HPC 1336, 10^6/ml of colony forming bacteria, read-out: MIC.
[5] abbreviates: clinical isolate MRSA HPC 432, 10^6/ml of colony forming bacteria, read-out: MIC.
[6] abbreviates: clinical isolate E.faecalis HPC 1321, 10^6/ml of colony forming bacteria, read-out: MIC.
[7] abbreviates: clinical isolate E.faecium HPC 1322, 10^6/ml of colony forming bacteria, read-out: MIC.
Where [8] appears, read: clinical isolate S.epidermidis HPC 1728, 10^6/ml of colony forming bacteria, read-out: MIC.

Usually MIC stands for the lowest concentration found to suppress growth. Consider `COC(=S)NC[C@H]1CN(c2ccc(N3CCSCC3)c(F)c2)C(=O)O1` [Example 1, O-Methyl (S)-N-[3-[3-fluoro-4-(thiomorpholin-4-yl)phenyl]-2-oxooxazolidin-5-yl]methylthiocarbamate], for which the MIC in assay [1] was 0.39 µg/mL (≈ 1.01 µM); in the assay with S.aureus MS353 HPC017 (setting [2]), 0.78 µg/mL (≈ 2.02 µM); with S.aureus Smith HPC023 (setting [3]), 1.56 µg/mL (≈ 4.05 µM); in the assay on MRSA HPC 1336 (setting [4]), 0.78 µg/mL (≈ 2.02 µM); in the assay with MRSA HPC 432 (setting [5]), 0.78 µg/mL (≈ 2.02 µM); in the assay with E.faecalis HPC 1321 (setting [6]) it was 0.78 µg/mL (≈ 2.02 µM). The MIC came out at 0.78 µg/mL (≈ 2.02 µM) with E.faecium HPC 1322 (setting [7]); 0.78 µg/mL (≈ 2.02 µM) in the assay with S.epidermidis HPC 1728 (setting [8]); 0.39 µg/mL (≈ 1.01 µM) against M.avium 20092; 0.39 µg/mL (≈ 1.01 µM) against M.avium 20096; 0.39 µg/mL (≈ 1.01 µM) in the assay on M.intracellulare 20067; 0.39 µg/mL (≈ 1.01 µM) against M.intracellulare 20073.
As to `COC(=S)NC[C@H]1CN(c2ccc(N3CC[S+]([O-])CC3)c(F)c2)C(=O)O1` [Example 2], the MIC worked out at 0.39 µg/mL (≈ 0.971 µM) in assay [1]; 0.78 µg/mL (≈ 1.94 µM) in the assay on S.aureus MS353 HPC017 (setting [2]); 0.78 µg/mL (≈ 1.94 µM) in the assay on S.aureus Smith HPC023 (setting [3]); 0.78 µg/mL (≈ 1.94 µM) in the assay on MRSA HPC 1336 (setting [4]); 0.78 µg/mL (≈ 1.94 µM) with MRSA HPC 432 (setting [5]); 0.39 µg/mL (≈ 0.971 µM) in the assay with E.faecalis HPC 1321 (setting [6]). For the same molecule, the MIC in the assay with E.faecium HPC 1322 (setting [7]) was 0.39 µg/mL (≈ 0.971 µM); with S.epidermidis HPC 1728 (setting [8]), 0.78 µg/mL (≈ 1.94 µM); with M.avium 20092 it was 3.13 µg/mL (≈ 7.8 µM); against M.avium 20096 it was 3.13 µg/mL (≈ 7.8 µM); in the assay on M.intracellulare 20067 it was 6.25 µg/mL (≈ 15.6 µM); in the assay on M.intracellulare 20073 it was 6.25 µg/mL (≈ 15.6 µM).
In the case of `COC(=S)NC[C@H]1CN(c2ccc(N3CCS(=O)(=O)CC3)c(F)c2)C(=O)O1` [Example 3], the MIC was determined as 0.39 µg/mL (≈ 0.934 µM) in assay [1]; 0.78 µg/mL (≈ 1.87 µM) in the assay on S.aureus MS353 HPC017 (setting [2]); 0.78 µg/mL (≈ 1.87 µM) with S.aureus Smith HPC023 (setting [3]); 0.78 µg/mL (≈ 1.87 µM) with MRSA HPC 1336 (setting [4]); 0.78 µg/mL (≈ 1.87 µM) in the assay on MRSA HPC 432 (setting [5]); 0.39 µg/mL (≈ 0.934 µM) in the assay with E.faecalis HPC 1321 (setting [6]). The minimum inhibitory concentration (MIC) in the assay on E.faecium HPC 1322 (setting [7]) was 0.39 µg/mL (≈ 0.934 µM); in the assay on S.epidermidis HPC 1728 (setting [8]), 0.39 µg/mL (≈ 0.934 µM); in the assay on M.avium 20092 it was 3.13 µg/mL (≈ 7.5 µM); with M.avium 20096 it was 3.13 µg/mL (≈ 7.5 µM); in the assay with M.intracellulare 20067 it was 3.13 µg/mL (≈ 7.5 µM); in the assay with M.intracellulare 20073, 3.13 µg/mL (≈ 7.5 µM).
As to `COC(=S)NC[C@H]1CN(c2ccc(N3CCCC3)c(F)c2)C(=O)O1` [Example 4], the minimum inhibitory concentration (MIC) (in assay [1]; with S.aureus MS353 HPC017 (setting [2]); in the assay with S.aureus Smith HPC023 (setting [3]); in the assay on MRSA HPC 1336 (setting [4]); in the assay with MRSA HPC 432 (setting [5]); in the assay on E.faecalis HPC 1321 (setting [6])) was 0.39 µg/mL (≈ 1.1 µM) each time. For the same molecule, the minimal inhibitory concentration (MIC) in the assay with E.faecium HPC 1322 (setting [7]) turned out to be 0.39 µg/mL (≈ 1.1 µM); in the assay on S.epidermidis HPC 1728 (setting [8]), 0.39 µg/mL (≈ 1.1 µM); in the assay on M.avium 20092, 1.56 µg/mL (≈ 4.41 µM); in the assay with M.avium 20096 it was 1.56 µg/mL (≈ 4.41 µM); in the assay on M.intracellulare 20067, 1.56 µg/mL (≈ 4.41 µM); with M.intracellulare 20073, 0.78 µg/mL (≈ 2.21 µM).
Consider `CC(=O)NC[C@H]1CN(c2ccc(N3CCOCC3)c(F)c2)C(=O)O1` [Reference compound, Linezolid, reference compound], for which the MIC in assay [1] worked out at 0.78 µg/mL (≈ 2.31 µM); with S.aureus MS353 HPC017, 3.13 µg/mL (≈ 9.28 µM); in the assay on S.aureus Smith HPC023, 3.13 µg/mL (≈ 9.28 µM); against MRSA HPC 1336 (MRSA), 3.13 µg/mL (≈ 9.28 µM); against MRSA HPC 432 (MRSA), 3.13 µg/mL (≈ 9.28 µM); in the assay on E.faecalis HPC 1321, 1.56 µg/mL (≈ 4.62 µM). In addition, the MIC was 1.56 µg/mL (≈ 4.62 µM) against E.faecium HPC 1322; 3.13 µg/mL (≈ 9.28 µM) against S.epidermidis HPC 1728; 25 µg/mL (≈ 74.1 µM) against M.avium 20092; 50 µg/mL (≈ 148 µM) against M.avium 20096; 12.5 µg/mL (≈ 37.1 µM) in the assay with M.intracellulare 20067; 6.25 µg/mL (≈ 18.5 µM) in the assay with M.intracellulare 20073.
